Source: patent US20170188607A1, “SOLUBILIZATION OF A SWEET MODULATOR AND FLAVOR” (Firmenich SA, priority 2014, published 2017)

Test: Supersaturation relative to the intrinsic solubility of the compound
Format: physicochemical
Description: A concentrated solution 1 of (S)-1-(3-(((4-amino-2,2-dioxido-1H-benzo[c][1,2,6]thiadiazin-5-yl)oxy)methyl)piperidin-1-yl)-3-methylbutan-1-one at 0.3% (w/w) (3000 ppm) was prepared in water. pH was adjusted to 11 using NaOH to form (S)-1-(3-(((4-amino-2,2-dioxido-1H-benzo[c][1,2,6]thiadiazin-5-yl)oxy)methyl)piperidin-1-yl)-3-methylbutan-1-one sodium salt and obtain an homogeneous solution. Next, a syrup was prepared by mixing an aqueous solution of High Fructose Corn Syrup (HFCS), citric acid and deionized water. The final syrup contained 34% fructose, 0.68% citric acid, 0.1% sodium citrate and 65.22% water, with a pH of 2. An aliquot of solution 1 was diluted 100 times with the syrup to yield a final concentration of 30 ppm of (S)-1-(3-(((4-amino-2,2-dioxido-1H-benzo[c][1,2,6]thiadiazin-5-yl)oxy)methyl)piperidin-1-yl)-3-methylbutan-1-one, i.e. about 18 times above the intrinsic solubility of the compound at 3° C. The sample was kept at 3° C. and the amount of (S)-1-(3-(((4-amino-2,2-dioxido-1H-benzo[c][1,2,6]thiadiazin-5-yl)oxy)methyl)piperidin-1-yl)-3-methylbutan-1-one was measured by UV spectroscopy as a function of time. The amount of (S)-1-(3-(((4-amino-2,2-dioxido-1H-benzo[c][1,2,6]thiadiazin-5-yl)oxy)methyl)piperidin-1-yl)-3-methylbutan-1-one was reduced to 28 ppm after 1 week and first crystals were visually observed. […]
A concentrated solution 1 of (S)-1-(3-(((4-amino-2,2-dioxido-1H-benzo[c][1,2,6]thiadiazin-5-yl)oxy)methyl)piperidin-1-yl)-3-methylbutan-1-one at […] was prepared in water. pH was adjusted to 11 using NaOH to form (S)-1-(3-(((4-amino-2,2-dioxido-1H-benzo[c][1,2,6]thiadiazin-5-yl)oxy)methyl)piperidin-1-yl)-3-methylbutan-1-one sodium salt and obtain an homogeneous solution. […] The sample was kept at 3° C. and the amount of (S)-1-(3-(((4-amino-2,2-dioxido-1H-benzo[c][1,2,6]thiadiazin-5-yl)oxy)methyl)piperidin-1-yl)-3-methylbutan-1-one was measured by UV spectroscopy as a function of time. […]

CC(C)CC(=O)N1CCC[C@H](COc2cccc3c2C(N)=NS(=O)(=O)N3)C1 [(S)-1-(3-(((4-amino-2,2-dioxido-1H-benzo[c][1,2,6]thiadiazin-5-yl)oxy)methyl)piperidin-1-yl)-3-methylbutan-1-one]
times above the intrinsic solubility of the compound (final concentration of 18 ppm, at 3° C.): about 11 times
times above the intrinsic solubility of the compound (final concentration of 30 ppm, at 3° C.): about 18 times
times above the intrinsic solubility of the compound (final concentration of 100 ppm, at 20° C.): about 15 times
